These results are taken from PMC9049205 (RSC Advances, 2020).

Test [1] has as its system influenza virus (A/PR/8/34 H1N1 strain). Nature of the test: organism not typed. It is filed as cell-based, Influenza A/PR/8/34 (H1N1). The settings on record: for EC50: 48 h, read-out: Anti-influenza virus activity EC50.
For a further test, the system named is influenza A virus. The settings on record: in vitro; cited from earlier work.
The subject of the next test is avian influenza A H5N1. The settings on record: mouse, in vivo; cited from earlier work.

Like-named read-outs stand apart in the source and are kept apart here.

Turning to `Cc1onc(-c2ccccc2)c1C(=O)N1CCC(c2ccc([N+](=O)[O-])cc2Cl)CC1` [Compound 1a, (4-(2-Chloro-4-nitrophenyl)piperidin-1-yl)(5-methyl-3-phenylisoxazol-4yl)methanone], in test [1], the “SI (selectivity index: CC50/EC50)” value was determined as 22.02 and the “anti-influenza activity (in words)” value is “excellent activity than ribavirin”. The EC50 in test [1] (MDCK) was determined as 0.898 ± 0.004 µM.
The corresponding values for `COc1ccccc1-c1noc(C)c1C(=O)N1CCC(c2ccc([N+](=O)[O-])cc2Cl)CC1` [Compound 1b, (4-(2-Chloro-4-nitrophenyl)piperidin-1-yl)(3-(2-methoxyphenyl)-5-methylisoxazol-4-yl)methanone] are 272.93, “excellent activity than ribavirin” and 0.253 ± 0.001 µM.
The corresponding values for `CSc1ccccc1-c1noc(C)c1C(=O)N1CCC(c2ccc([N+](=O)[O-])cc2Cl)CC1` [Compound 1c, (4-(2-Chloro-4-nitrophenyl)piperidin-1-yl)(5-methyl-3-(2-(methylthio)phenyl)isoxazol-4-yl)methanone] are 398.41, “excellent activity than ribavirin” and 0.502 ± 0.002 µM.
For the molecule `Cc1onc(-c2cccc(Cl)c2Cl)c1C(=O)N1CCC(c2ccc([N+](=O)[O-])cc2Cl)CC1` [Compound 1d, (4-(2-Chloro-4-nitrophenyl)piperidin-1-yl)(3-(2,3-dichlorophenyl)-5-methylisoxazol-4-yl)methanone], in test [1], the “anti-influenza activity (in words)” value is “moderate activity”. For the same molecule, the EC50 in test [1] (MDCK) stood at 21.572 ± 0.015 µM.
Turning to `COc1nc2ccccc2cc1-c1noc(C)c1C(=O)N1CCC(c2ccc([N+](=O)[O-])cc2Cl)CC1` [Compound 1e, (4-(2-Chloro-4-nitrophenyl)piperidin-1-yl)(3-(2-methoxyquinolin-3-yl)-5-methylisoxazol-4-yl)methanone], in test [1], the “SI (selectivity index: CC50/EC50)” value was 2.52 and the “anti-influenza activity (in words)” value is on record as “moderate activity”. Further, in test [1] (MDCK), the EC50 was determined as 9.905 ± 0.01 µM.
The corresponding values for `COc1ccc(-c2noc(C)c2C(=O)N2CCC(c3ccc([N+](=O)[O-])cc3Cl)CC2)c(OC)c1` [Compound 1f, (4-(2-Chloro-4-nitrophenyl)piperidin-1-yl)(3-(2,4-dimethoxyphenyl)-5-methylisoxazol-4-yl)methanone] are 13.68, “excellent activity than ribavirin” and 2.036 ± 0.009 µM.
The corresponding values for `Cc1onc(-c2ccccc2F)c1C(=O)N1CCC(c2ccc([N+](=O)[O-])cc2Cl)CC1` [Compound 1g, (4-(2-Chloro-4-nitrophenyl)piperidin-1-yl)(3-(2-fluorophenyl)-5-methylisoxazol-4-yl)methanone] are 12.27, “excellent activity than ribavirin” and 1.356 ± 0.008 µM.
Regarding `Cc1onc(-c2ccco2)c1C(=O)N1CCC(c2ccc([N+](=O)[O-])cc2Cl)CC1` [Compound 1h, (4-(2-Chloro-4-nitrophenyl)piperidin-1-yl)(3-(furan-2-yl)-5-methylisoxazol-4-yl)methanone], the “anti-influenza activity (in words)” value in test [1] is on record as “moderate activity”. For the same molecule, in test [1] (MDCK), the EC50 came to 16.226 ± 0.012 µM.
For the molecule `NC(=O)c1ncn([C@@H]2O[C@H](CO)[C@@H](O)[C@H]2O)n1` [Ribavirin, reference compound], the “SI (selectivity index: CC50/EC50)” value in test [1] amounted to 6.37. In test [1] (MDCK), the EC50 was found to be 9.891 ± 0.06 µM.
Turning to `Cc1onc(-c2ccccc2)c1C(=O)N1CCN(c2ccc([N+](=O)[O-])cc2Cl)CC1` [nucleozin, Nucleozin], in the test on influenza A virus, the “median effective concentration (EC50), influenza A virus replication” value is “nanomolar”. Moreover, in the test with avian influenza A H5N1, the “protection of mice challenged with lethal doses of avian influenza A H5N1” value is listed as “protected mice”.
Take “(4-(2-Chloro-4-nitrophenyl)piperidin-1-yl)(3-methyl-5-styrylisoxazol-4-yl)methanone [Compound 1i]”: in test [1], the “anti-influenza activity (in words)” value is reported as “moderate activity” and the EC50 is 34.483 ± 0.014 µM.
Turning to “(5-Benzyl-3-methylisoxazol-4-yl)(4-(2-chloro-4-nitrophenyl) piperidin-1-yl)methanone [Compound 1j]”, in test [1], the “anti-influenza activity (in words)” value is on record as “moderate activity” and the EC50 was 19.41 ± 0.012 µM.
